From US20220010310A1, “An lncRNA integrates a DNA-PK-mediated DNA damage response and vascular senescence” (The Brigham and Women`s Hospital, Inc., priority 2018, published 2022)

B1: Deletion of domain-4: biotinylated SNHG12 construct with predicted secondary-structure domain 4 deleted (nucleic acid, listed as Homo sapiens)
chain: TGCAAGCCTCTGCCTGCCTTCCTGCGCGCCGTTCCCCGCTAGTCGCTGCTGCTGGCGCGCACTCGCCGGGTTTTTCCTCCCACGGCCTCGAGATGGTGGTGAATGTGGCACGGAGGAGCCGGGCCTTCCAACCCGGTGGGCCCGAGCTCCGAAAGGCCCCCTCGGCAGTGAGAGGGGCGGGAGCCCGCGGGGGCCGCGCCCTTCTCTCGCTTCGGACTGCGCAACGCTGCGCTCTGGGCTGACAGGCGGATAAAACGGTCCCATCAAGACTGAGAAAAAGCACACCAGCTATTGGCACAGCGTGGGCAGTGGGGCCTACAGGATGACTGACTTAGTCTACAGAGATCCCGGCGTACTTAAGCAGATGAAGACTCTTAAGATGACAGAAGGTGATTTTTCTGGTGATCGAGGACTTCCGGGGTAATGACAGTGATGAAATGCAGGGGACCTGGTTGCCCCCAAGTTTCCTGGCAGTGTGTGATACTGAGGAGGTGAGCTTGTTTCTGGAGCTGTGCTTTAAGGTAAAGTTGATCAGCTTAATCCTCCTGATCCCTTTCCCA
modifications: biotin
notes: biotinylated SNHG12 construct with predicted secondary-structure domain 4 deleted

Experiments:
[1] = test system: LDLR−/− mice; test: NR rescue of SNHG12-gapmeR accelerated atherosclerosis in LDLR−/− mice; type: in vivo, mouse
Protocol: FIGS. 5A-G. NR rescued progression of atherosclerotic lesions in LDLR^−/− mice induced by SNHG12 silencing. (A) LDLR^−/− mice were i.v. injected with vehicle control or SNHG12-gapmeR (7.5 mg/kg/mouse) twice per week and placed on an HCD containing NR (400 mg/kg/day) for 12 weeks (n=12 per group). (B) Lesion areas were quantified using ORO area on aortic sinus sections (n=10 per group). Fold change was calculated compared to groups from study 1 as described in FIG. 1. P value was determined by Student's t test. (C) Lesional DNA damage in the vascular endothelium of the aortic arch was quantified in LDLR^−/− mice by γH2AX with nuclear co-localization with DAPI in CD31^+ cells compared to study 1. RT-qPCR analysis for (D) SNHG12 and (E) markers of senescence p16, p21, and p27 from RNA isolated of the aortic intima of mice placed on HCD containing NR (n=6 per group). P value was determined by Student's t test. (F) Acellular areas were measured in the aortic sinus for each of the indicated groups (n=6 per group; 2-3 lesion per mice). (G) TUNEL staining was quantified in the aortic sinus for each of the indicated groups (n=7 per group). P value was determined by Student's t test. For all panels, values are mean±SD; *p<0.05, **p<0.01; ***p<0.001; ****p<0.0001.
Furthermore, administration of the NAD^+ precursor NR can limit DNA damage. […] To assess whether SNHG12-deficient lesion progression involves increased DNA damage, SNHG12-gapmeR was delivered i.v. as described in (FIG. 1F) and the HCD was supplemented with NR (400 mg/kg/day) (FIG. 5A). […] Moreover, NR administration abrogated the SNHG12-gapmeR mediated effect on increased γH2AX foci in lesional ECs in the aortic arch (FIG. 5C). Consistent with less DNA damage, the induction of the senescence markers p16, p21, and p27 fell in the presence of NR compared to LDLR^−/− mice treated with SNHG12-gapmeRs without NR (FIGS. 5D, 5E). […] Taken together, the rescue effects mediated by NR strongly support the findings that the lncRNA SNHG12 regulates the DDR both in vitro and in vivo.

[2] = test system: HUVECs; test: Mitochondrial stress (Seahorse OCR/ECAR, NAD+/NADH) in gapmeR-transfected HUVECs; type: cell-based, human
Protocol: FIGS. 13A-D. Accumulating DNA damage and its effect on mitochondrial stress. (A) Oxidative consumption rate (OCR) and extracellular acidification rate (ECAR). The bars from left to right represent control, control+NR, SNHG12 KD, and SNHG12 KD+NR, respectively. (B) in HUVECs transfected with the indicated gapmeRs in the absence or presence of NR (500 μM, 24 hrs) (n=3). P value was determined by one-way analysis of variance (ANOVA) (Fisher's test). The bars from left to right represent control, control+NR, SNHG12 KD, and SNHG12 KD+NR, respectively. (C) SNHG12 expression or (D) ratio of NAD+ to […] in gapmeR-transfected HUVECs in the absence or presence of NR (n=3). P value was determined by Student's t test. For all panels, values are mean±SD; *p<0.05, **p<0.01; ***p<0.001; ****p<0.0001.
Mitochondrial dysfunction is a hallmark of senescence and reparative responses during oxidative insults requires effective energy metabolism. Oxidative stress-induced DNA damage activates NAD+ consumption pathways (31). Examination of the effect of SNHG12 knockdown on key mitochondrial activities such as mitochondrial respiration and glycolysis in ECs used Seahorse analyses. Loss of SNHG12 decreased the extracellular acidification rate (ECAR) and oxygen consumption rate (OCR) of live cells (FIGS. 13A, 13B). […]

[3] = molecular target: T1, DNA-PK (Homo sapiens, UniProt P78527); test: lncRNA pulldown of biotinylated SNHG12 domain deletion constructs; type: binding; details: pulldown with HUVEC nuclear protein lysate
T1 construct: lncRNA pulldown using nuclear protein extract from HUVECs; endogenous in cells; host or cells: HUVEC nuclear protein lysate
Source text: (A) Proteins identified in pulldowns of biotinylated SNHG12; DNA-PK bound specifically to SNHG12 compared to negative control LacZ (n=2, two technical replicates each). (B) Immunoblotting for DNA-PK, ATM, ATR, Ku80, Ku70, p53, and control on nuclear protein lysate from HUVECs after lncRNA pulldown (n=5). (C) Analysis after streptavidin pulldown of nuclear protein lysate derived from the aorta of C57B1/6 mice following two i.v. injections of biotin-labeled SNHG12 compared to LacZ (n=4 per group). (D, E) Predicted secondary structure of SNHG12 with indicated deletions of domains 1˜4 used for subsequent lncRNA pulldown of biotinylated SNHG12 domain deletion constructs (n=4). P value was determined by one-way analysis of variance (ANOVA) (Fisher's test). (F) IP for DNA-PK following RNA isolation and subsequent RT-qPCR for SNHG12 and for negative control HPRT (n=5). […] Immunoblotting for Ku70, Ku80 and DNA-PK and (H) quantification under H2O2 conditions (n=3). […]
To identify potential SNHG12-interacting proteins that may inform mechanisms underlying these findings, biotin-labeled T7 in vitro transcribed SNHG12 or LacZ was incubated with nuclear protein lysate of HUVECs (FIG. 9A). […] Furthermore, biophysical studies determined the equilibrium dissociation constant (KD) for the SNHG12-DNA-PK interaction (1.318E-07 μM) (FIG. 9E). […]

T1 sequence (P78527 whole entry, the tested form may be a part): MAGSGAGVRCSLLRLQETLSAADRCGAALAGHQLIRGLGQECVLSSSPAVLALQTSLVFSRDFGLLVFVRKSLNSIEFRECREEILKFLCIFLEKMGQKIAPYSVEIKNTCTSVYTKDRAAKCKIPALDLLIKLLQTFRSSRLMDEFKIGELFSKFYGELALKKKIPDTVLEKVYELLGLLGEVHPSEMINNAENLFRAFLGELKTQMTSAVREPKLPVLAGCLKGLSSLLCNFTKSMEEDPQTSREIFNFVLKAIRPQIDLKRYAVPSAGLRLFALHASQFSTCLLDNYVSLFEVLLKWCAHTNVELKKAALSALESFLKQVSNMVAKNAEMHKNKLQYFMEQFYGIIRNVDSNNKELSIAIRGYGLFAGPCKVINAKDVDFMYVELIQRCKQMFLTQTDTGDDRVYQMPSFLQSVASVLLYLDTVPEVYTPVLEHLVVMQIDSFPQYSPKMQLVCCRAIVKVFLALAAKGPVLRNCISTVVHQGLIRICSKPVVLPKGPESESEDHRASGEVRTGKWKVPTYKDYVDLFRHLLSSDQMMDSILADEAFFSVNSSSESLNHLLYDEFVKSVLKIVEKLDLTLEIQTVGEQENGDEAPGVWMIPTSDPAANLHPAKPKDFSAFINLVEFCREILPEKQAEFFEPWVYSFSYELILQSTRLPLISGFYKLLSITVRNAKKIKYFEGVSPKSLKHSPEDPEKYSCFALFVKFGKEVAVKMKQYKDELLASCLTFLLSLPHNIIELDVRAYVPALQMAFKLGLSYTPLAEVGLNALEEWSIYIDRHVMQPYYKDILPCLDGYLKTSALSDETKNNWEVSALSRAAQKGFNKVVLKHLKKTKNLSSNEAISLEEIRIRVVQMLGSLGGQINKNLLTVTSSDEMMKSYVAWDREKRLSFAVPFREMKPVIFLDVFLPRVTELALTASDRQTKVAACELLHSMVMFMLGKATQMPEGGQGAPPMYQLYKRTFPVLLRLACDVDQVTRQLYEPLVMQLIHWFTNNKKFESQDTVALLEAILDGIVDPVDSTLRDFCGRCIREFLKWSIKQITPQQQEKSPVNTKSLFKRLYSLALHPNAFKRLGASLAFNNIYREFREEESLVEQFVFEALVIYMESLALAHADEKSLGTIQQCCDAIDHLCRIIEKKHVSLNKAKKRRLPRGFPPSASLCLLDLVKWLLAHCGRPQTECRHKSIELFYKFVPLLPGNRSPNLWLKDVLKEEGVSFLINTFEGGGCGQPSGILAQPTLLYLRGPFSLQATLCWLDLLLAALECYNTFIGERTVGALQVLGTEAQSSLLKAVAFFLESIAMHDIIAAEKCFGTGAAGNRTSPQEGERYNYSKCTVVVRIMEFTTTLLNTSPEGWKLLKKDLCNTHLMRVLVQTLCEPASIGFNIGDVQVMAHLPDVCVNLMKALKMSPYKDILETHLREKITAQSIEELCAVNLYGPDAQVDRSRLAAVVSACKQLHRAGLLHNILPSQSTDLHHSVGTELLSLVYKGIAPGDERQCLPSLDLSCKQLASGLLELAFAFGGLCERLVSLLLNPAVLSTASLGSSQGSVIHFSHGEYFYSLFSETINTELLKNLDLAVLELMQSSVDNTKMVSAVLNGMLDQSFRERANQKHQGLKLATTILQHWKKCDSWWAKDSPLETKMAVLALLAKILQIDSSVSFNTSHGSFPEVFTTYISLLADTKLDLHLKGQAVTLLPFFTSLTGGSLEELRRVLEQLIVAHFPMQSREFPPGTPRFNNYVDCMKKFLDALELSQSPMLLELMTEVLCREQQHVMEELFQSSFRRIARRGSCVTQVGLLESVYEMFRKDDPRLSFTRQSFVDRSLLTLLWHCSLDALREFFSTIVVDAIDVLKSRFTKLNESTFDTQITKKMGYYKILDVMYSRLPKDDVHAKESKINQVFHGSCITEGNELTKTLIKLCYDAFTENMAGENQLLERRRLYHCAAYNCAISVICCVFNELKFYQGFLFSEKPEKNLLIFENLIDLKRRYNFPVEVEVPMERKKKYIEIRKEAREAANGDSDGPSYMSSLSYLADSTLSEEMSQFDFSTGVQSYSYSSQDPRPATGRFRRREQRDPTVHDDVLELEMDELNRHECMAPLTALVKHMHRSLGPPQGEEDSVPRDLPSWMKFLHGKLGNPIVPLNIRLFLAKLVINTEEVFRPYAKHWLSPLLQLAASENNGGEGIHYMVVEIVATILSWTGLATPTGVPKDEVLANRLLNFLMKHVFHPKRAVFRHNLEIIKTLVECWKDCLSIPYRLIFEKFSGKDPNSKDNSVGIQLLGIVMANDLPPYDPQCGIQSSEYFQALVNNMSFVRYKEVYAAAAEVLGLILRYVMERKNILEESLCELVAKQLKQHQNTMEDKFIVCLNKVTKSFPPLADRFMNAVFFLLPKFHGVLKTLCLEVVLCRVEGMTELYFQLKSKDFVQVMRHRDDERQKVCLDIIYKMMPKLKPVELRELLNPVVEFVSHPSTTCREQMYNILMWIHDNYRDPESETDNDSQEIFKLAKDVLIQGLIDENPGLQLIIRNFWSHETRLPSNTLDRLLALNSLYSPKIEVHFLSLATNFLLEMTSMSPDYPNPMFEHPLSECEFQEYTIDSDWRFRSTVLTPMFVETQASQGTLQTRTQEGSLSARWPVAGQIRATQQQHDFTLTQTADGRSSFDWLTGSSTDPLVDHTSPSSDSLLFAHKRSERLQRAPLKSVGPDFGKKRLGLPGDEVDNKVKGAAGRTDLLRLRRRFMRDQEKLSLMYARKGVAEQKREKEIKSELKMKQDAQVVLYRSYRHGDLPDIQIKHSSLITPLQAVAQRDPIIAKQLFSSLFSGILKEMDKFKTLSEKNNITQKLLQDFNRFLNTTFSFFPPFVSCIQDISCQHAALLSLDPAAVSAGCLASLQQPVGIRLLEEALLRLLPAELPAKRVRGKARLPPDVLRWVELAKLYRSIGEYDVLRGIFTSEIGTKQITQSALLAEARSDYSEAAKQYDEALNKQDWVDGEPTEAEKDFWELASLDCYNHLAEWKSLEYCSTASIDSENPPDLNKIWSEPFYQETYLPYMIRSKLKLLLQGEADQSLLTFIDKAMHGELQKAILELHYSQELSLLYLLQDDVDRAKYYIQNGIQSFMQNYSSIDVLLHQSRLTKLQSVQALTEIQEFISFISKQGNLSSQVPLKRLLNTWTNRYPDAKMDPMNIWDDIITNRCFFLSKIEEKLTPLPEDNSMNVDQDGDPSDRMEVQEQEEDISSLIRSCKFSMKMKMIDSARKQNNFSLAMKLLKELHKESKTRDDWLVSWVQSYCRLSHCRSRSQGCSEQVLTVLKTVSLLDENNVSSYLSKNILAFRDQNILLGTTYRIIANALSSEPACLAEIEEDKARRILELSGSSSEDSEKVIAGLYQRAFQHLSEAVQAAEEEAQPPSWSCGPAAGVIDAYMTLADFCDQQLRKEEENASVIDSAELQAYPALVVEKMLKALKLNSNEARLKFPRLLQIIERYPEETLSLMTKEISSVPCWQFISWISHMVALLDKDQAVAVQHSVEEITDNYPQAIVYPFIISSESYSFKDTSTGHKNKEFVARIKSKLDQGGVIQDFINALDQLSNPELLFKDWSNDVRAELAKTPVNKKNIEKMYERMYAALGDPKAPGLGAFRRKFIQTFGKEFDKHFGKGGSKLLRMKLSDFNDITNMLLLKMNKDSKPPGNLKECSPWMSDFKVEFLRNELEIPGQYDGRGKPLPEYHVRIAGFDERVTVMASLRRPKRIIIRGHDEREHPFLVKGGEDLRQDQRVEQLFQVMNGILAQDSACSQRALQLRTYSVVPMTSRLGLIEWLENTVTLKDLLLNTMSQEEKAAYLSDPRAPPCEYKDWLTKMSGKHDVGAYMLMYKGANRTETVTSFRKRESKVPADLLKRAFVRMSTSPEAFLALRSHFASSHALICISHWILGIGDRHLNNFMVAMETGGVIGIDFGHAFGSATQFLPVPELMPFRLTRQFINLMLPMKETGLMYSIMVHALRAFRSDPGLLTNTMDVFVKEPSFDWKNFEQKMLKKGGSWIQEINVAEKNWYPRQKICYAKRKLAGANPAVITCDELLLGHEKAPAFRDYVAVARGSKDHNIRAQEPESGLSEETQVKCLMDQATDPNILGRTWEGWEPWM

Molecule	increase in lesion areas by ORO between SNHG12-gapmeR and control-gapmeR groups on NR ([1]; HCD with NR 400 mg/kg/day, 12 weeks, P=0.1729)	SNHG12-gapmeR mediated increase of γH2AX foci in lesional ECs in the aortic arch ([1]; NR 400 mg/kg/day, 12 weeks)	induction of senescence markers p16, p21, and p27 compared to SNHG12-gapmeR without NR ([1]; aortic intima, NR 400 mg/kg/day)	TUNEL positive cells compared to groups without NR ([1]; aortic sinus, NR 400 mg/kg/day)	differences in plaque necrosis ([1]; aortic sinus, NR 400 mg/kg/day)	SNHG12 expression ([2]; NR 500 μM, 24 hrs)	NAD+/NADH ratio ([2]; gapmeR-transfected HUVECs, absence or presence of NR)	reduction of DNA-PK binding [3] [%]
NC(=O)c1ccc[n+]([C@@H]2O[C@H](CO)[C@@H](O)[C@H]2O)c1 [NR, Nicotinamide Riboside]	no significant	abrogated	fell	reduced	eliminated differences	did not affect	partially rescued	–
B1	–	–	–	–	–	–	–	~50
